Source: article PMC6193035, “Novel small molecules affecting cell membrane as potential therapeutics for avian pathogenic Escherichia coli” (Scientific Reports, 2018)
Marks after values point to notes of the source that are not given here.

Key:
APEC O78 [1] = assay: MIC and MBC determination in M63 media; type: cell-based, Escherichia coli; details: Escherichia coli
Description: (§1) One microlitre SM of each concentration was transferred to each well of a 96-well plate containing 100 µL of the 0.05 OD600 adjusted APEC O78 culture in M63 media. Growth was monitored in Sunrise - Absorbance microplate reader as described above. MIC was indicated by lowest concentration of SM with non-elevated OD600 measurement. MBC was determined by absence of APEC growth on LB agar plate following subculture. […] Two independent experiments were conducted.

APEC O8 = assay: MIC and MBC determination in M63 media; type: cell-based; details: Escherichia coli
APEC O78 [2] = assay: Bacterial cytological profiling by confocal microscopy; type: cell-based, Escherichia coli; details: 2X MBC, 2 h
Description: Confocal microscopy was used for bacterial cytological profiling (BCP) to identify the cellular pathways targeted by SMs as described previously. […] After incubation, treated cultures were centrifuged, washed, and resuspended in 100 µL PBS. FM4-64 (#T13320 Molecular Probes/Invitrogen) (1 µg/mL) and SYTO-9 (#S34854 Molecular Probes/Invitrogen) (5 µM) were added to the bacterial cultures and incubated for 45 mins at room temperature with shaking at 150 rpm. Cultures were then centrifuged, washed, and resuspended in PBS to 1/10th volume of the original cultures.

APEC O2-211 = assay: MIC and MBC determination in M63 media; type: cell-based; details: Escherichia coli; APEC O2-211, M63 media
APEC O115 = assay: MIC and MBC determination in M63 media; type: cell-based; details: Escherichia coli
APEC O78-53 = assay: MIC and MBC determination in M63 media; type: cell-based; details: Escherichia coli; APEC O78-53, M63 media
Description: as §1

APEC O109 = assay: MIC and MBC determination in M63 media; type: cell-based; details: Escherichia coli
[3] = system: intracellular APEC O1 in HD11 cells; assay: Intracellular survival assay; type: cell-based, Escherichia coli
Description: (§2) Intracellular survival assay was conducted as described previously[28],[29] to determine the effect of cidal SMs on APEC survival in phagocytic (HD11, THP-1) and non-phagocytic (Caco-2) cells. Briefly, mid-logarithmic phase grown APEC O78, O1, and O2 were washed and adjusted to 1 × 10^7 CFU/mL in cell culture incomplete media (no FBS and antibiotics). One-hundred microlitres adjusted APEC suspension was added at multiplicity of infection (MOI) 10 to wells of 96-well cell culture plate containing cultured macrophage (HD11, THP-1) and epithelial cells (Caco-2) and incubated for 1 h and 3 h, respectively. […] The cells were then lysed with 100 µL of 0.1% Triton X-100 for 5 mins, serially diluted, and plated on LB agar plate to enumerate viable bacteria. The intracellular bacteria in SMs treated wells were compared with DMSO (1%) treated wells. Two independent experiments in duplicate wells for each concentration of SMs were conducted.

[4] = system: intracellular APEC O78 in THP-1 cells; assay: Intracellular survival assay; type: cell-based, Escherichia coli
Description: as §2

[5] = system: intracellular APEC O2 in THP-1 cells; assay: Intracellular survival assay; type: cell-based, Escherichia coli
Description: as §2

[6] = system: intracellular APEC O1 in Caco-2 cells; assay: Intracellular survival assay; type: cell-based, Escherichia coli
Description: as §2

[7] = system: intracellular APEC O1 in THP-1 cells; assay: Intracellular survival assay; type: cell-based, Escherichia coli
Description: as §2

[8] = system: intracellular APEC O2 in HD11 cells; assay: Intracellular survival assay; type: cell-based, Escherichia coli
Description: as §2

[9] = system: intracellular APEC O78 in Caco-2 cells; assay: Intracellular survival assay; type: cell-based, Escherichia coli
Description: as §2

[10] = system: intracellular APEC O78 in HD11 cells; assay: Intracellular survival assay; type: cell-based, Escherichia coli
Description: as §2

[11] = system: intracellular APEC O2 in Caco-2 cells; assay: Intracellular survival assay; type: cell-based, Escherichia coli
Description: as §2

APEC O78 [12] = assay: Loss of 260/280 nm absorbing materials assay; type: cell-based, Escherichia coli; details: 2X MBC, 1 h
Description: Membrane permeability assays (crystal violet (CV) uptake and loss of 260/280 nm absorbing materials) were conducted as described previously. […] CV uptake was measured using the formula: (OD DMSO − OD SM/OD DMSO × 100). Two independent experiments in duplicates were conducted.

APEC O2 = assay: MIC and MBC determination in M63 media; type: cell-based; details: Escherichia coli

Q: `CC1CCC(C(C)C)C(OC(=O)Cn2c[n+](CC(=O)OC3CC(C)CCC3C(C)C)c3ccccc32)C1` (stereo not shown) [SM4] was tested. Which MIC (APEC O78 [1]) did it give?
A: The MIC was 25 µM.

Q: And the MBC (APEC O78 [1]; subculture on LB agar)?
A: The MBC was 50 µM.

Q: What about the MBC (APEC O8) of the same molecule?
A: The MBC was 25 µM.

Q: And the MIC (APEC O8)?
A: The MIC was 25 µM.

Q: What about the “cytological profile (FM4-64 / SYTO-9 staining)” value (APEC O78 [2]) of the same molecule?
A: The value was “absence of FM4-64 stained membrane (membrane disruptors)”.

Q: And the MBC (APEC O2-211)?
A: The MBC was 25 µM.

Q: What about the MIC (APEC O2-211) of the same molecule?
A: The MIC was 25 µM.

Q: And the MBC (APEC O115)?
A: Its MBC is 25 µM.

Q: And the MIC (APEC O115)?
A: Its MIC is 25 µM.

Q: And the MBC (APEC O78-53)?
A: Its MBC is 50 µM.

Q: And the MIC (APEC O78-53)?
A: The MIC was 25 µM.

Q: And the MBC (APEC O109)?
A: Its MBC is 25 µM.

Q: What about the MIC (APEC O109) of the same molecule?
A: Its MIC is 25 µM.

Q: And the minimal effective concentration ([3]; Escherichia coli, O1, HD11, 6 h treatment, read-out: SMs intracellular APEC clearance concentration)?
A: The minimal effective concentration was 50 µM.

Q: And the “concentration at which the SM significantly (P < 0.01) reduced intracellular APEC (superscript of t-statistic)” value ([3]; O1, HD11, 6 h)?
A: Its value is “b (1X MIC)”.

Q: And the minimal effective concentration ([4]; Escherichia coli, O78, THP-1, 6 h treatment, read-out: SMs intracellular APEC clearance concentration)?
A: The minimal effective concentration was 50 µM.

Q: What about the “intracellular APEC clearance concentration as multiple of MIC (superscript)” value ([4]; O78, THP-1) of the same molecule?
A: Its value is “b (2X MIC)”.

Q: And the “concentration at which the SM significantly (P < 0.01) reduced intracellular APEC (superscript of t-statistic)” value ([4]; O78, THP-1, 6 h)?
A: Its value is “a (0.5X MIC)”.

Q: What about the minimal effective concentration ([5]; Escherichia coli, O2, THP-1, 6 h treatment, read-out: SMs intracellular APEC clearance concentration) of the same molecule?
A: The minimal effective concentration was 100 µM.

Q: What about the “concentration at which the SM significantly (P < 0.01) reduced intracellular APEC (superscript of t-statistic)” value ([5]; O2, THP-1, 6 h) of the same molecule?
A: The value was “b (1X MIC)”.

Q: What about the minimal effective concentration ([6]; Escherichia coli, O1, Caco-2, 6 h treatment, read-out: SMs intracellular APEC clearance concentration) of the same molecule?
A: Its minimal effective concentration is 100 µM.

Q: And the “intracellular APEC clearance concentration as multiple of MIC (superscript)” value ([6]; O1, Caco-2)?
A: Its value is “c (4X MIC)”.

Q: And the “concentration at which the SM significantly (P < 0.01) reduced intracellular APEC (superscript of t-statistic)” value ([6]; O1, Caco-2, 6 h)?
A: The value was “c (2XMIC)”.

Q: What about the minimal effective concentration ([7]; Escherichia coli, O1, THP-1, 6 h treatment, read-out: SMs intracellular APEC clearance concentration) of the same molecule?
A: The minimal effective concentration was greater than 100 µM.

Q: And the “concentration at which the SM significantly (P < 0.01) reduced intracellular APEC (superscript of t-statistic)” value ([7]; O1, THP-1, 6 h)?
A: The value was “b (1X MIC)”.

Q: What about the minimal effective concentration ([8]; Escherichia coli, O2, HD11, 6 h treatment, read-out: SMs intracellular APEC clearance concentration) of the same molecule?
A: Its minimal effective concentration is 50 µM.

Q: What about the “intracellular APEC clearance concentration as multiple of MIC (superscript)” value ([8]; O2, HD11) of the same molecule?
A: Its value is “b (2X MIC)”.

Q: What about the “concentration at which the SM significantly (P < 0.01) reduced intracellular APEC (superscript of t-statistic)” value ([8]; O2, HD11, 6 h) of the same molecule?
A: The value was “a (0.5X MIC)”.

Q: And the minimal effective concentration ([9]; Escherichia coli, O78, Caco-2, 6 h treatment, read-out: SMs intracellular APEC clearance concentration)?
A: The minimal effective concentration was 50 µM.

Q: What about the “intracellular APEC clearance concentration as multiple of MIC (superscript)” value ([9]; O78, Caco-2) of the same molecule?
A: The value was “b (2X MIC)”.

Q: And the “concentration at which the SM significantly (P < 0.01) reduced intracellular APEC (superscript of t-statistic)” value ([9]; O78, Caco-2, 6 h)?
A: The value was “a (0.5X MIC)”.

Q: And the minimal effective concentration ([10]; Escherichia coli, O78, HD11, 6 h treatment, read-out: SMs intracellular APEC clearance concentration)?
A: Its minimal effective concentration is 50 µM.

Q: And the “intracellular APEC clearance concentration as multiple of MIC (superscript)” value ([10]; O78, HD11)?
A: Its value is “b (2X MIC)”.

Q: And the “concentration at which the SM significantly (P < 0.01) reduced intracellular APEC (superscript of t-statistic)” value ([10]; O78, HD11, 6 h)?
A: The value was “a (0.5X MIC)”.

Q: And the minimal effective concentration ([11]; Escherichia coli, O2, Caco-2, 6 h treatment, read-out: SMs intracellular APEC clearance concentration)?
A: The minimal effective concentration was 100 µM.

Q: What about the “intracellular APEC clearance concentration as multiple of MIC (superscript)” value ([11]; O2, Caco-2) of the same molecule?
A: The value was “c (4X MIC)”.

Q: And the “concentration at which the SM significantly (P < 0.01) reduced intracellular APEC (superscript of t-statistic)” value ([11]; O2, Caco-2, 6 h)?
A: Its value is “c (2XMIC)”.

Q: What about the “260 nm absorbing materials in supernatant compared with DMSO” value (APEC O78 [12]) of the same molecule?
A: Its value is “significantly (P < 0.05, Student’s t-test) increased”.

Q: What about the “280 nm absorbing materials in supernatant compared with DMSO” value (APEC O78 [12]) of the same molecule?
A: The value was “significantly (P < 0.05, Student’s t-test) increased”.

Q: And the “Absorbance 280 nm of treated supernatant” value (APEC O78 [12]; DMSO 2.58, superscript a P < 0.05 vs DMSO)?
A: The value was 2.69^a.

Q: And the “Absorbance 260 nm of treated supernatant” value (APEC O78 [12]; DMSO 3.77, superscript a P < 0.05 vs DMSO)?
A: Its value is 3.91^a.

Q: And the MBC (APEC O2)?
A: The MBC was 50 µM.

Q: And the MIC (APEC O2)?
A: Its MIC is 25 µM.
